Measurements from patent US8084649B2, “Herbicides” (Syngenta Crop Protection, inc., priority 2007, dated 2011).

Tests used:
Assay type in all cases: in vivo
[1] = test system: Alopecurus myosuroides (ALOMY); assay: Pre-emergence herbicidal activity, glasshouse pot test; settings: Alopecurus myosuroides, 480 h, rate 500 g/ha, evaluated after 20 days, read-out: Pre-emergence activity, ALOMY (100=total damage to plant; 0=no damage to plant)
Outline: (§1)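 Test compound, taken up in acetone with an Emulsogen EL/NMP/dipropylene glycol monomethyl ether/X-77 formulant and diluted with water, was sprayed onto soil of freshly sown pots after one day of cultivation. Evaluation at 20 days used a 0–100 injury rating.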

[2] = test system: Avena fatua (AVEFA); assay: as above; settings: Avena fatua, 480 h, rate 500 g/ha, evaluated after 20 days, read-out: Pre-emergence activity, AVEFA (100=total damage to plant; 0=no damage to plant)
Outline: as §1

[3] = test system: Digitaria sanguinalis (DIGSA); assay: as above; settings: Digitaria sanguinalis, 480 h, rate 500 g/ha, evaluated after 20 days, read-out: Pre-emergence activity, DIGSA (100=total damage to plant; 0=no damage to plant)
Outline: as §1

[4] = test system: Echinochloa crus-galli (ECHCG); assay: as above; settings: Echinochloa crus-galli, 480 h, rate 500 g/ha, evaluated after 20 days, read-out: Pre-emergence activity, ECHCG (100=total damage to plant; 0=no damage to plant)
Outline: as §1

[5] = test system: Lolium perenne (LOLPE); assay: as above; settings: Lolium perenne, 480 h, rate 500 g/ha, evaluated after 20 days, read-out: Pre-emergence activity, LOLPE (100=total damage to plant; 0=no damage to plant)
Outline: as §1

[6] = test system: Setaria faberi (SETFA); assay: as above; settings: Setaria faberi, 480 h, rate 500 g/ha, evaluated after 20 days, read-out: Pre-emergence activity, SETFA (100=total damage to plant; 0=no damage to plant)
Outline: as §1

[7] = test system: Alopecurus myosuroides (ALOMY); assay: Post-emergence herbicidal activity, glasshouse pot test; settings: Alopecurus myosuroides, evaluated after 14 or 15 days, read-out: Post-emergence activity, ALOMY (100=total damage to plant; 0=no damage to plant); for pest or weed control at 125 g/ha: rate 125 g/ha; for pest or weed control at 500 g/ha: rate 500 g/ha
Outline: (§2)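 Post-emergence spray on 10-day-old potted plants (sterilised standard soil, controlled glasshouse conditions); spray solution from technical compound in acetone with Emulsogen EL, N-methylpyrrolidone, dipropylene glycol monomethyl ether and X-77. Rated 14–15 d later, 0 = no damage, 100 = total damage.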

[8] = test system: Avena fatua (AVEFA); assay: as above; settings: Avena fatua, evaluated after 14 or 15 days, read-out: Post-emergence activity, AVEFA (100=total damage to plant; 0=no damage to plant); for pest or weed control at 125 g/ha: rate 125 g/ha; for pest or weed control at 500 g/ha: rate 500 g/ha
Outline: as §2

[9] = test system: Digitaria sanguinalis (DIGSA); assay: as above; settings: Digitaria sanguinalis, evaluated after 14 or 15 days, read-out: Post-emergence activity, DIGSA (100=total damage to plant; 0=no damage to plant); for pest or weed control at 125 g/ha: rate 125 g/ha; for pest or weed control at 500 g/ha: rate 500 g/ha
Outline: as §2

[10] = test system: Echinochloa crus-galli (ECHCG); assay: as above; settings: Echinochloa crus-galli, evaluated after 14 or 15 days, read-out: Post-emergence activity, ECHCG (100=total damage to plant; 0=no damage to plant); for pest or weed control at 125 g/ha: rate 125 g/ha; for pest or weed control at 500 g/ha: rate 500 g/ha
Outline: as §2

[11] = test system: Lolium perenne (LOLPE); assay: as above; settings: Lolium perenne, evaluated after 14 or 15 days, read-out: Post-emergence activity, LOLPE (100=total damage to plant; 0=no damage to plant); for pest or weed control at 125 g/ha: rate 125 g/ha; for pest or weed control at 500 g/ha: rate 500 g/ha
Outline: as §2

[12] = test system: Setaria faberi (SETFA); assay: as above; settings: Setaria faberi, evaluated after 14 or 15 days, read-out: Post-emergence activity, SETFA (100=total damage to plant; 0=no damage to plant); for pest or weed control at 125 g/ha: rate 125 g/ha; for pest or weed control at 500 g/ha: rate 500 g/ha
Outline: as §2

Compound | pest or weed control at 500 g/ha [1] [%] | pest or weed control at 500 g/ha [2] [%] | pest or weed control at 500 g/ha [3] [%] | pest or weed control at 500 g/ha [4] [%] | pest or weed control at 500 g/ha [5] [%] | pest or weed control at 500 g/ha [6] [%] | pest or weed control at 125 g/ha [7] [%] | pest or weed control at 125 g/ha [8] [%] | pest or weed control at 125 g/ha [9] [%] | pest or weed control at 125 g/ha [10] [%] | pest or weed control at 125 g/ha [11] [%] | pest or weed control at 125 g/ha [12] [%] | pest or weed control at 500 g/ha [7] [%] | pest or weed control at 500 g/ha [8] [%] | pest or weed control at 500 g/ha [9] [%] | pest or weed control at 500 g/ha [10] [%] | pest or weed control at 500 g/ha [11] [%] | pest or weed control at 500 g/ha [12] [%]
CCc1cc(C)cc(CC)c1C1=C(OS(=O)(=O)Cc2ccccc2)CC2(CCOCC2)CC1=O [Compound P26] | 80 | 80 | 60 | 40 | 90 | 70 | 10 | 0 | 10 | 0 | 0 | 0 | – | – | – | – | – | –
CCc1cc(C)cc(CC)c1C1=C(OS(=O)(=O)CC(F)(F)F)CC2(CCOCC2)CC1=O [Compound P27] | 100 | 100 | 100 | 100 | 100 | 100 | 70 | 50 | 70 | 70 | 70 | 50 | – | – | – | – | – | –
CCCS(=O)(=O)OC1=C(c2c(CC)cc(C)cc2CC)C(=O)CC2(CCOCC2)C1 [Compound P29] | 60 | 60 | 80 | 10 | 60 | 60 | 30 | 0 | 50 | 30 | 10 | 30 | – | – | – | – | – | –
CCc1cc(C)cc(CC)c1C1=C(OC)CC2(CCOCC2)CC1=O [Compound P32] | 100 | 100 | 50 | 20 | 100 | 10 | 20 | 0 | 0 | 0 | 0 | 0 | – | – | – | – | – | –
CCOC1=C(c2c(CC)cc(C)cc2CC)C(=O)CC2(CCOCC2)C1 [Compound P33] | 90 | 30 | 70 | 10 | 50 | 10 | 20 | 0 | 30 | 0 | 0 | 0 | – | – | – | – | – | –
CCCCCCCCCCCC(=O)OC1=C(c2c(CC)cc(C)cc2CC)C(=O)CC2(CCOCC2)C1 [Compound P44] | 100 | 100 | 100 | 100 | 100 | 100 | 80 | 90 | 100 | 90 | 90 | 90 | – | – | – | – | – | –
CCCCCCCCCCCCCCCC(=O)OC1=C(c2c(CC)cc(C)cc2CC)C(=O)CC2(CCOCC2)C1 [Compound P45] | 80 | 100 | 100 | 100 | 100 | 100 | 30 | 60 | 20 | 10 | 0 | 10 | – | – | – | – | – | –
CCc1cc(C)cc(CC)c1C1=C(OC(=O)CCCCCCC(=O)OC)CC2(CCOCC2)CC1=O [Compound P46] | 100 | 100 | 100 | 100 | 100 | 100 | 90 | 100 | 90 | 100 | 90 | 90 | – | – | – | – | – | –
C=CCCCCCCCCC(=O)OC1=C(c2c(CC)cc(C)cc2CC)C(=O)CC2(CCOCC2)C1 [Compound P47] | 100 | 100 | 100 | 100 | 100 | 100 | 70 | 60 | 70 | 70 | 50 | 60 | – | – | – | – | – | –
CCc1cc(CC)c(C2=C(OC(=O)C(C)(C)C)CC3(CCOCC3)CC2=O)c(CC)c1 [Compound P49] | 100 | 60 | 100 | 100 | 100 | 100 | – | – | – | – | – | – | 60 | 10 | 90 | 90 | 50 | 80
COC1CCC2(CC1)CC(=O)C(c1cc(C)ccc1C)=C(OC(=O)CC(C)(C)C)C2 (stereo not drawn) [Compound P56] | 100 | 60 | 100 | 80 | 60 | 100 | – | – | – | – | – | – | 70 | 10 | 80 | 80 | 70 | 70
CCc1cc(C)cc(CC)c1C1=C(OC(=O)C(C)(C)C)CC2(CCCSC2)CC1=O (stereo not drawn) [Compound P59] | 20 | 10 | 100 | 50 | 10 | 70 | 40 | 0 | 80 | 30 | 20 | 60 | – | – | – | – | – | –
CCc1cc(C)cc(CC)c1C1=C(OC(=O)C(C)(C)C)CC(CC(C)SC(C)C)CC1=O (stereo not drawn) [Compound P60] | 80 | 0 | 100 | 90 | 100 | 90 | 70 | 50 | 60 | 70 | 70 | 60 | – | – | – | – | – | –
